In patent publication US11485731B2, “Compounds and methods useful in the treatment of a PRMT5-mediated disorder” (ARGONAUT THERAPEUTICS LIMITED, priority 2017, dated 2022):

Biological target: human PRMT5/MEP50 (Homo sapiens (Human), UniProt O14744)
Assay: PRMT5 chemiluminescent assay
Type: biochemical
Settings: human PRMT5/MEP50 expressed in HEK293 cells; biotinylated histone peptides; Histone H4 monomethyl R3 antibody; chemiluminescent readout
Method in brief: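 HEK293-expressed PRMT5/MEP50, diluted to 5 ng/µL in assay buffer, reacted 60 min with rotation on plate-bound biotinylated histone peptides. Product was detected with anti-histone H4 R3 monomethyl antibody (60 min), then HRP secondary (30 min) and chemiluminescent substrate. IC50 values came from the chemiluminescence signal.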

Sequence of human PRMT5/MEP50 (O14744 whole entry): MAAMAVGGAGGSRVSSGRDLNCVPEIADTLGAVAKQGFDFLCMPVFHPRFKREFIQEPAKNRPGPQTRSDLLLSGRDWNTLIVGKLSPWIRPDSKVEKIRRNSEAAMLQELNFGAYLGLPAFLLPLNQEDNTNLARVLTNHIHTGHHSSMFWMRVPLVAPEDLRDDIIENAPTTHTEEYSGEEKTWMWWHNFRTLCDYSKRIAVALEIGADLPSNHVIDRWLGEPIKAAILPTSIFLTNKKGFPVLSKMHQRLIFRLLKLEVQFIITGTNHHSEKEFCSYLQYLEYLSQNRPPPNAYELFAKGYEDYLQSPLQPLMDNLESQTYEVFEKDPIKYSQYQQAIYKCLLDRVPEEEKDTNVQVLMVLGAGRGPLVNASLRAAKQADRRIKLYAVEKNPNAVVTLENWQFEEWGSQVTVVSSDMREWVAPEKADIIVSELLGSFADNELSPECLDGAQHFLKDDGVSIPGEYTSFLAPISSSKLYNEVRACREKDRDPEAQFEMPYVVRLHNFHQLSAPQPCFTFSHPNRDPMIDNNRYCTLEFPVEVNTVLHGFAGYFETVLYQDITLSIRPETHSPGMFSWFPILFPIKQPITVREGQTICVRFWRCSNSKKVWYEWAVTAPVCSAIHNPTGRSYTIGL
Sequence of human PRMT5/MEP50 (Q9BQA1 whole entry partner): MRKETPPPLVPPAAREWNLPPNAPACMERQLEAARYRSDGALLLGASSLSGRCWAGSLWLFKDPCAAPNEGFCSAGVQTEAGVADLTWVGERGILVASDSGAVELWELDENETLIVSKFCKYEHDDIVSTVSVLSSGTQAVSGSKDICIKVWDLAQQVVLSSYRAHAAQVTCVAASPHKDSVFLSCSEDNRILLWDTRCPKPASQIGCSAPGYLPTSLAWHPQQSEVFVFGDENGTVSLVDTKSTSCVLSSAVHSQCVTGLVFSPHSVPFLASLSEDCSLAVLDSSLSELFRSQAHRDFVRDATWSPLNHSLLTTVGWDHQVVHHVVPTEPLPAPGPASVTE

Compound | IC50 [nM]
O=C(OCC(O)CN1CCc2ccccc2C1)N1CCC(Cc2ccccc2)CC1 (stereo not drawn) [Example 4D, 3-(3,4-dihydroisoquinolin-2(1H)-yl)-2-hydroxypropyl 4-benzylpiperidine-1-carboxylate] | 173
O=C(OC[C@@H](O)CN1CCc2ccccc2C1)N1CCc2ccccc2C1 [Example 4H, (S)-3-(3,4-dihydroisoquinolin-2(1H)-yl)-2-hydroxypropyl 3,4-dihydroisoquinoline-2(1H)-carboxylate] | 539
O=C(OCC(O)CN1CCc2ccccc2C1)N1CCCC(O)C1 (stereo not drawn) [Example 4I, 3-(3,4-dihydroisoquinolin-2(1H)-yl)-2-hydroxypropyl 3-hydroxypiperidine-1-carboxylate] | 8830
CN1CCCN(C(=O)OCC(O)CN2CCc3ccccc3C2)CC1 (stereo not drawn) [Example 4J, 3-(3,4-dihydroisoquinolin-2(1H)-yl)-2-hydroxypropyl 4-methyl-1,4-diazepane-1-carboxylate] | 246
O=C(OCC(O)CN1CCc2ccccc2C1)N1CC[S+]([O-])CC1 (stereo not drawn) [Example 4M, 3-(3,4-dihydroisoquinolin-2(1H)-yl)-2-hydroxypropyl thiomorpholine-4-carboxylate 1-oxide] | 2220
O=C(OCC(O)CN1CCc2ccccc2C1)N1CCS(=O)(=O)CC1 (stereo not drawn) [Example 4N, 3-(3,4-dihydroisoquinolin-2(1H)-yl)-2-hydroxypropyl thiomorpholine-4-carboxylate 1,1-dioxide] | 213000
CN(C)C(=O)C1CCN(C(=O)OC[C@H](O)CN2CCc3ccccc3C2)CC1 [Example 4O, (R)-3-(3,4-dihydroisoquinolin-2(1H)-yl)-2-hydroxypropyl 4-(dimethylcarbamoyl)piperidine-1-carboxylate] | 2710
O=C(OC[C@H](O)CN1CCc2ccccc2C1)N1CCC(C(=O)N2CCOCC2)CC1 [Example 4P, (R)-3-(3,4-dihydroisoquinolin-2(1H)-yl)-2-hydroxypropyl 4-(morpholine-4-carbonyl)piperidine-1-carboxylate] | 225
O=C(OC[C@H](O)CN1CCc2ccccc2C1)N1CCC(C(=O)N2C3CCC2COC3)CC1 [Example 4Q, (R)-3-(3,4-dihydroisoquinolin-2(1H)-yl)-2-hydroxypropyl 4-(3-oxa-8-azabicyclo[3.2.1]octane-8-carbonyl)piperidine-1-carboxylate] | 160

These reach a lower IC50. Values come first.

IC50 [nM] | Compound
19 | O=C(OC[C@H](O)CN1CCc2ccccc2C1)N1CCC(c2ccccc2)C1 (stereo partly drawn) [Example 4E, (R)-3-(3,4-dihydroisoquinolin-2(1H)-yl)-2-hydroxypropyl 3-phenylpyrrolidine-1-carboxylate]
49 | O=C(OC[C@@H](O)CN1CCc2ccccc2C1)N1CCC(c2ccccc2)C1 (stereo partly drawn) [Example 4F, (S)-3-(3,4-dihydroisoquinolin-2(1H)-yl)-2-hydroxypropyl 3-phenylpyrrolidine-1-carboxylate]
8 | O=C(OC[C@H](O)CN1CCc2ccccc2C1)N1CCc2ccccc2C1 [Example 4G, (R)-3-(3,4-dihydroisoquinolin-2(1H)-yl)-2-hydroxypropyl 3,4-dihydroisoquinoline-2(1H)-carboxylate]
20 | O=C(OC[C@H](O)CN1CCc2ccccc2C1)N1CC[C@@H](c2ccccc2)C1 [Example 4K, (R)-3-(3,4-dihydroisoquinolin-2(1H)-yl)-2-hydroxypropyl (S)-3-phenylpyrrolidine-1-carboxylate]
13 | O=C(OC[C@H](O)CN1CCc2ccccc2C1)N1CC[C@H](c2ccccc2)C1 [Example 4L, (R)-3-(3,4-dihydroisoquinolin-2(1H)-yl)-2-hydroxypropyl (R)-3-phenylpyrrolidine-1-carboxylate]
81 | O=C(OC[C@H](O)CN1CCc2ccccc2C1)N1CCC(c2ccccn2)C1 (stereo partly drawn) [Example 4R, (R)-3-(3,4-dihydroisoquinolin-2(1H)-yl)-2-hydroxypropyl 3-(pyridin-2-yl)pyrrolidine-1-carboxylate]
